Assay results from patent US3954733A, “Naphthyridine-3-carboxamido-benzylpenicillins and salts thereof” (Sumitomo Chemical Company, Limited, priority 1973, dated 1976).
Converted amounts (≈) assume the structure as drawn.

Tests used:
Experiment in all cases: minimal inhibitory concentration, agar dilution method
Type in all cases: cell-based
Escherichia coli NIHJ = test system: Escherichia coli NIHJ
Source text: (§1) When determined according to the agar dilution method, the penicillins (I) afford the minimal inhibitory concentrations against test microorganisms as shown in Table 2.

Proteus miravilis GN2425 = test system: Proteus miravilis GN2425
Proteus vulgaris HV19 = test system: Proteus vulgaris HV19
[1] = test system: Staphylococcus aureus 209P
Source text: as §1

[2] = test system: Pseudomonas aeruginosa 104
Source text: as §1

Row | Structure (SMILES) | MIC (Escherichia coli NIHJ) | MIC (Proteus miravilis GN2425) | MIC (Proteus vulgaris HV19) | MIC [1] | MIC [2]
1 | CCOC(=O)Oc1ccc(C(NC(=O)c2cnc3ccc(N(C)C)nc3c2O)C(=O)N[C@@H]2C(=O)N3[C@@H]2SC(C)(C)[C@@H]3C(=O)O)cc1 (mixture of isomers) [Example 3, DL-α-(4-hydroxy-6-dimethylamino-1,5-naphthyridine-3-carboxamido)-p-ethoxycarbonyloxybenzylpenicillin] | 1.56 µg/mL | 1.56 µg/mL | 0.1 µg/mL | 1.56 µg/mL | 3.13 µg/mL
2 | CC1(C)S[C@@H]2[C@H](NC(=O)C(C(=O)O)c3ccccc3)C(=O)N2[C@H]1C(=O)O (stereo partly drawn) [Carbenicillin, reference compound] | 12.5 µg/mL (≈ 33 µM) | 0.78 µg/mL (≈ 2.06 µM) | – | 0.78 µg/mL (≈ 2.06 µM) | 50 to 100 µg/mL (≈ 132 to 264 µM)
3 | CC(C)(C)C(=O)Oc1ccc([C@@H](NC(=O)c2cnc3ccccc3c2O)C(=O)N[C@@H]2C(=O)N3[C@@H]2SC(C)(C)[C@@H]3C(=O)O)cc1 [Example 4, D-α-(4-hydroxyquinoline-3-carboxamido)-p-pivaloyloxybenzylpenicillin] | 6.25 µg/mL (≈ 10.1 µM) | 6.25 µg/mL (≈ 10.1 µM) | 0.2 µg/mL (≈ 0.322 µM) | 0.39 µg/mL (≈ 0.628 µM) | 6.25 µg/mL (≈ 10.1 µM)
4 | CC1(C)S[C@@H]2[C@H](NC(=O)[C@H](NC(=O)c3nnc4ccccc4c3O)c3ccc(O)cc3)C(=O)N2[C@H]1C(=O)O [Example 8, D-α-(4-hydroxycinnoline-3-carboxamido)-p-hydroxybenzylpenicillin] | 12.5 µg/mL (≈ 23.3 µM) | 12.5 µg/mL (≈ 23.3 µM) | – | 0.78 µg/mL (≈ 1.45 µM) | 12.5 µg/mL (≈ 23.3 µM)
5 | CCOC(=O)Oc1ccc([C@@H](NC(=O)c2cnc3cc(Cl)ccc3c2O)C(=O)N[C@@H]2C(=O)N3[C@@H]2SC(C)(C)[C@@H]3C(=O)O)cc1 [Example 10] | – | 0.78 µg/mL (≈ 1.21 µM) | – | 0.39 µg/mL (≈ 0.606 µM) | –
6 | CC1(C)S[C@@H]2[C@H](NC(=O)[C@H](NC(=O)c3cnc4ccccc4c3O)c3ccc(O)c(Cl)c3)C(=O)N2[C@H]1C(=O)O [Example 14] | 6.25 µg/mL (≈ 10.9 µM) | 6.25 µg/mL (≈ 10.9 µM) | – | 0.78 µg/mL (≈ 1.37 µM) | 6.25 µg/mL (≈ 10.9 µM)
7 | CCOC(=O)Oc1ccc([C@@H](NC(=O)c2cnc3cc([N+](=O)[O-])ccc3c2O)C(=O)N[C@@H]2C(=O)N3[C@@H]2SC(C)(C)[C@@H]3C(=O)O)cc1 [Example 20] | 12.5 µg/mL (≈ 19.1 µM) | 6.5 µg/mL (≈ 9.94 µM) | – | 0.78 µg/mL (≈ 1.19 µM) | 12.5 µg/mL (≈ 19.1 µM)
8 | CCOC(=O)Oc1ccc([C@@H](NC(=O)c2cnc3cc4c(cc3c2S)OCO4)C(=O)N[C@@H]2C(=O)N3[C@@H]2SC(C)(C)[C@@H]3C(=O)O)cc1 [Example 38] | – | 3.13 µg/mL (≈ 4.68 µM) | 0.2 µg/mL (≈ 0.299 µM) | 0.39 µg/mL (≈ 0.583 µM) | 3.13 µg/mL (≈ 4.68 µM)

Further lines, results first:

Row | MIC (Escherichia coli NIHJ) | MIC (Proteus miravilis GN2425) | MIC (Proteus vulgaris HV19) | MIC [1] | MIC [2] | Structure (SMILES)
9 | 3.13 µg/mL | 3.13 µg/mL | 0.025 µg/mL | – | – | CC1(C)S[C@@H]2[C@H](NC(=O)C(NC(=O)c3cnc4cccnc4c3O)c3ccc(O)cc3)C(=O)N2[C@H]1C(=O)O (mixture of isomers) [Example 2, DL-α-(4-hydroxy-1,5-naphthyridine-3-carboxamido)-p-hydroxybenzylpenicillin]
10 | 6.25 µg/mL | 6.25 µg/mL | 0.2 µg/mL | 0.78 µg/mL | 6.25 µg/mL | CC1(C)S[C@@H]2[C@H](NC(=O)C(NC(=O)c3cnc4ccccc4c3O)c3ccc(O)cc3)C(=O)N2[C@H]1C(=O)O (mixture of isomers) [Example 6, DL-α-(4-hydroxyquinoline-3-carboxamido)-p-hydroxybenzylpenicillin]
11 | 1.56 µg/mL (≈ 2.9 µM) | 1.56 µg/mL (≈ 2.9 µM) | 0.025 µg/mL (≈ 0.0465 µM) | 0.78 µg/mL (≈ 1.45 µM) | 1.56 µg/mL (≈ 2.9 µM) | CC1(C)S[C@@H]2[C@H](NC(=O)[C@H](NC(=O)c3cnc4cccnc4c3O)c3ccc(O)cc3)C(=O)N2[C@H]1C(=O)O [Example 1, D-α-(4-hydroxy-1,5-naphthyridine-3-carboxamido)-p-hydroxybenzylpenicillin]
12 | 12.5 µg/mL (≈ 20.7 µM) | 3.13 µg/mL (≈ 5.18 µM) | – | – | 12.5 µg/mL (≈ 20.7 µM) | CC1(C)S[C@@H]2[C@H](NC(=O)[C@H](NC(=O)c3cnc4cc(C(F)(F)F)ccc4c3O)c3ccc(O)cc3)C(=O)N2[C@H]1C(=O)O [Example 11]
